Measured values: publication PMC10208570, “Peptidomimetic antibiotics disrupt the lipopolysaccharide transport bridge of drug-resistant Enterobacteriaceae” (Science Advances, 2023)
Where a SMILES comes first, the peptide text is derived from it. Bridges are numbered along the chain shown (N, C = ends). [ ]: non-standard residue; d: D form. Pen = CC(C)(S)[C@H](N)C(=O)O; dDab = NCC[C@@H](N)C(=O)O; Dab = NCC[C@H](N)C(=O)O

Columns and labels:
human red blood cells = test: Haemolysis; type: cell-based; conditions: PBS-washed human red blood cells; 1 h at 200 mg/liter, 37°C; OD 540 nm; versus 100% lysis control 2.5% Triton X-100; biological replicates
Method: To test their hemolytic potential, compounds were incubated in the presence of phosphate-buffered saline (PBS)–washed human red blood cells. After 1-hour incubation at 200 mg/liter and 37°C, the samples were centrifuged (3220g), the supernatants were diluted in Dulbecco’s PBS, and optical density at 540 nm was determined. The hemolysis induced by the compound was calculated versus a 100% lysis control prepared with 2.5% Triton X-100 (table S4A).

in vitro = type: cell-based; conditions: human
Method: (§1) The cytotoxicity of compounds was determined by determining the number of viable cells using the Sigma Cell Counting Kit-8 (WST-8). HeLa cells were incubated at 37°C and 5% CO2 for 24 hours, after which the medium was replaced with fresh medium containing dilutions of compounds. […]

HeLa cells = test: in vitro; type: cell-based
Method: as §1

[1] = tested on: K. pneumoniae 968733 (CST-R); test: MIC assay (CLSI); type: cell-based, Klebsiella pneumoniae; conditions: CLSI method; colistin-resistant strain
How it was run: (§2)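 MICs were determined by CLSI methodology. Serial passage studies were also run, and resistant mutants isolated from them were re-tested for MIC and then characterised by whole-genome sequencing.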

[2] = tested on: E. coli ATCC 25922 LptA Q62L mutant; test: microbe, parasite or virus in culture; conditions: CLSI method; clone harboring LptA Q62L
How it was run: as §2

[3] = tested on: E. coli ATCC 25922 (parent / WT); test: microbe, parasite or virus in culture; conditions: CLSI method; parent strain
How it was run: as §2

## CC[C@H](C)[C@H](NC(=O)[C@@H](NC(=O)[C@@H]1CCCN1C(=O)[C@@H](N)C(C)C)[C@@H](C)CC)C(=O)N[C@@H](Cc1ccc(O)cc1)C(=O)N[C@@H]1C(=O)N[C@@H](CC(N)=O)C(=O)N[C@@H](CCCNC(=N)N)C(=O)N[C@@H](CCN)C(=O)N[C@@H]([C@@H](C)O)C(=O)N[C@H](CCN)C(=O)N[C@@H](CCCCN)C(=O)N[C@H](C(=O)N[C@@H](CCN)C(=O)N[C@@H](CCCNC(=N)N)C(=O)N[C@@H](Cc2ccc(O)cc2)C(=O)O)CSSC1(C)C [Compound 3] (H-VPIIY[Pen]NR[Dab]T[dDab]KC[Dab]RY-OH; disulfide 6-13)
Human red blood cells
  Haemolysis % at 0.2 g/L: 0%
In vitro
  IC50 at 48 h: 41 µM
HeLa cells
  IC50: 40 µM
[1]
  MIC K. pneumoniae 968733 (CST-R) Parent: 0.25 micrograms per milliliter
[2]
  MIC E. coli ATCC 25922 Q62L mutant: 1 micrograms per milliliter
[3]
  MIC E. coli ATCC 25922 Parent: 0.063 micrograms per milliliter
